Assay results: patent publication US10077284B2, “UBA5 inhibitors” (THE GOVERNING COUNCIL OF THE UNIVERSITY OF TORONTO, priority 2014, dated 2018)
Several values for one entry are separate records, joined by “and”; a condition that tells them apart may be missing. Identical values can stand only once. Like-named read-outs stand apart in the source and are kept apart here.

Assays:
[1] = test system: UFM1 conjugation in Sk-Luci6 cells; conditions: Sk-Luci6, increasing concentrations, 72 h
Protocol: (§1) Cells were washed twice with cold PBS and protein extracts were prepared using RIPA buffer with a protease and phosphatase inhibitor cocktail (Roche #11836153001, #04906845001). Protein concentrations were determined using the BCA protein quantification technique (BCA Protein assay kit, Pierce). In each assay, 30 μg of whole cell protein extract was resolved on a 10% SDS-polyacrylamide gel and transferred to a PVDF membrane (Bio-Rad). The membranes were blocked with SuperBlock (Thermo scientific; No. 37515) for at least 1 hr followed by an overnight incubation in primary antibody. Blots were probed with antibodies against UBA5 (abcam; ab109227) and UFM-1 (abcam; ab09305) in a 1:1000 dilution, and anti-β-actin (1:5000 dilution; Cell Signaling, 3700S) was used as a loading control. […] The bands were visualized and analyzed using Image lab software (Bio-Rad).
(§2) The intracellular inhibition of UBA5 was evaluated in order to investigate its use as a molecular tool to study cellular UFMylation by UBA5 inactivation. […] The graphical representation of the intracellular inhibition of UFM1 protein conjugation (evaluated using Western Blot analysis, described in detail within the Materials and Methods submitted in May 2014) is shown in FIG. 26. […]

[2] = test system: UFM1 conjugation in K562 cells; conditions: K562, increasing concentrations, 72 h
Protocol: as §1, §2

UBA5 = UBA5 (Homo sapiens, UniProt Q9GZZ9); conditions: in the presence of 1.5.Zn (5 μM)
UBA5, sequence (Q9GZZ9 whole entry): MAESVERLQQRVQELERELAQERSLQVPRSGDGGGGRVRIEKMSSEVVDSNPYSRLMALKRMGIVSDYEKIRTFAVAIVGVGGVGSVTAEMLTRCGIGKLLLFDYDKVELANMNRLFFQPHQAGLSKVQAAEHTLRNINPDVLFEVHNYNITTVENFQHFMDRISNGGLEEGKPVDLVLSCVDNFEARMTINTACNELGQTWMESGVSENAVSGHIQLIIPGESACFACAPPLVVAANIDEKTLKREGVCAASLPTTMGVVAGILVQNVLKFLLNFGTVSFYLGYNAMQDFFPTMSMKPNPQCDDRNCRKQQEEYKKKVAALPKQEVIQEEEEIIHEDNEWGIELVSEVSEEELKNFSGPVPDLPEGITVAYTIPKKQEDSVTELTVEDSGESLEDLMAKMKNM
Protocol: Initial rates were recorded over 30 second time intervals from 0 to 2.5 min (normal kinetics) or 0 to 5 min (inhibition kinetics). Reactions were initiated by the addition of ATP and stopped using 4× Laemmli sample buffer (BioRad). The generated protein conjugates were separated on a 10% […] SDS-polyacrylamide gel (4-15% gels were used for the UAE transthiolaton assay), followed by Western blot analysis, with the exception of GST-UBA5 where protein bands were detected using Coomassie™ Brilliant Blue R-250 staining or Stain-Free gel imaging for the enzymatic assays (Bio-Rad). Transfers for the UAE and NAE immunoblots were performed using nitrocellulose membranes and blocking and blotting was performed as described above with cellular protein extracts. The His6-tagged Ub-UBCH6 complex was detected using an anti-His mouse monoclonal primary antibody (1:500, abcam). A rabbit anti-NEDD8 polyclonal primary antibody (1:500, BostonBiochem) was used for the detection of the E2-NEDD8 complexes. […] Inhibitory data was fit to a dose-response curve (Y=Bottom+(Top−Bottom)/(1+10^(X-Log IC50))) using GraphPad Prism 6.
Concentrations of UBA5 (1 μM), UFM1 (10 μM), and UFC1 (10 μM) were held constant, while the concentration of ATP was varied from 0 to 1 mM. […] Protein concentrations were held constant as in (A), and concentrations of ATP were varied from 0 to 1 mM (n=3). […]

[3] = test system: Sk-Luci6, A549 and MRC-9 cells; conditions: all treated cells
From the text: Confluence of live cells was estimated visually under phase contrast microscopy.
Sk-Luci6, A549 and MRC-9 were each plated as 5×10^3 cells per well and grown in 10% serum on a 96 well plate. […] Cell numbers were obtained at 24 hr time points over a period of 72 hrs using trypan blue exclusion assay (BioRad; #145-0021) and counted using a hemocytometer.

GST-UBA5 = target: T1, GST-UBA5 (Homo sapiens, UniProt Q9GZZ9); test: UBA5 transthiolation assay (UFC1-UFM1 conjugate formation); assay type: biochemical
T1 construct: made in house
T1 sequence (Q9GZZ9 whole entry): as above
Protocol: (§5) Initial rates were recorded over 30 second time intervals from 0 to 2.5 min (normal kinetics) or 0 to 5 min (inhibition kinetics). Reactions were initiated by the addition of ATP and stopped using 4× Laemmli sample buffer (BioRad). The generated protein conjugates were separated on a 10% non-degenerating SDS-polyacrylamide gel (4-15% gels were used for the UAE transthiolaton assay), followed by Western blot analysis, with the exception of GST-UBA5 where protein bands were detected using Coomassie™ Brilliant Blue R-250 staining or Stain-Free gel imaging for the enzymatic assays (Bio-Rad). Transfers for the UAE and NAE immunoblots were performed using nitrocellulose membranes and blocking and blotting was performed as described above with cellular protein extracts. The His6-tagged Ub-UBCH6 complex was detected using an anti-His mouse monoclonal primary antibody (1:500, abcam). A rabbit anti-NEDD8 polyclonal primary antibody (1:500, BostonBiochem) was used for the detection of the E2-NEDD8 complexes. […] Inhibitory data was fit to a dose-response curve (Y=Bottom+(Top−Bottom)/(1+10^(X-Log IC50))) using GraphPad Prism 6.

[4] = target: T2, NEDD8 activating enzyme (NAE) (Homo sapiens, UniProt Q8TBC4); test: NAE transthiolation assay (NEDD8 transfer to UbcH12); assay type: biochemical
T2 construct: purchased Boston Biochem
T2 sequence (Q8TBC4 1-463): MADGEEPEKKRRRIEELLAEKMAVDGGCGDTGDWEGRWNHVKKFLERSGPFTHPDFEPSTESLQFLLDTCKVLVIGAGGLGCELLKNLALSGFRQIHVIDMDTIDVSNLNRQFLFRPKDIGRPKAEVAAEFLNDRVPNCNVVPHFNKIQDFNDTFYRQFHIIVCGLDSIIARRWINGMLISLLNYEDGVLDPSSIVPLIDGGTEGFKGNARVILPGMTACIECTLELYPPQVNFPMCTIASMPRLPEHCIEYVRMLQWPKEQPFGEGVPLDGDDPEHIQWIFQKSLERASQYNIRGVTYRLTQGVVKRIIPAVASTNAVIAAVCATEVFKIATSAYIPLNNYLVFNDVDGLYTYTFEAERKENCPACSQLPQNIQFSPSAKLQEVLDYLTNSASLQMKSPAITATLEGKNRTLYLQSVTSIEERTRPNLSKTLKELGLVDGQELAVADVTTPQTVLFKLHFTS
T2 sequence (Q13564 1-534 partner): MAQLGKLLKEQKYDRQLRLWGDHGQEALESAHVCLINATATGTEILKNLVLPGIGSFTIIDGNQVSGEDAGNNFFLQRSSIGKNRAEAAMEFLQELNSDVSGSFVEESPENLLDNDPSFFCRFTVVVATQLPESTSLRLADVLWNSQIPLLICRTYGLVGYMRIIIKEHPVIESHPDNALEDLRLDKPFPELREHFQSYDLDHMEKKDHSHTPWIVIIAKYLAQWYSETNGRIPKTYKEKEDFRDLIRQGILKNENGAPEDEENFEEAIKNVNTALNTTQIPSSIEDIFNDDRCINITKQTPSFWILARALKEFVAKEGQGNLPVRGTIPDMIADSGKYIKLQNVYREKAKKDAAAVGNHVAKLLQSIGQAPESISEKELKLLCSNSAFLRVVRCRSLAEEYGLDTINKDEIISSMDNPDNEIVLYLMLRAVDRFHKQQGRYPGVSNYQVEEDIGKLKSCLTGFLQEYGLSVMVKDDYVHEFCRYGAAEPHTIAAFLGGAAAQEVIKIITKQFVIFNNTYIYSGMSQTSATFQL
Protocol: as §5

[5] = test system: NEDD8 downstream protein labeling in Sk-Luci6 cells; conditions: Sk-Luci6, increasing concentrations
Protocol: (§3) Cells were washed twice with cold PBS and protein extracts were prepared using RIPA buffer with a protease and phosphatase inhibitor cocktail (Roche #11836153001, #04906845001). Protein concentrations were determined using the BCA protein quantification technique (BCA Protein assay kit, Pierce). In each assay, 30 μg of whole cell protein extract was resolved on a 10% SDS-polyacrylamide gel and transferred to a PVDF membrane (Bio-Rad). The membranes were blocked with SuperBlock (Thermo scientific; No. 37515) for at least 1 hr followed by an overnight incubation in primary antibody. Blots were probed with antibodies against UBA5 (abcam; ab109227) and UFM-1 (abcam; ab09305) in a 1:1000 dilution, and anti-β-actin (1:5000 dilution; Cell Signaling, 3700S) was used as a loading control. Fluorescent labeled secondary antibodies anti-rabbit Alexa Fluor® 647 Conjugate (red, 1:5000) and anti-mouse Alexa Fluor® 488 Conjugate (green, 1:20,000) were used to detect bands (Cell Signaling; 4414S and 4408S, respectively). The bands were visualized and analyzed using Image lab software (Bio-Rad).
(§4) Bands were visualized using anti-rabbit Alexa Fluor® 647 (1:5000, for NEDD8 and NEDD8 conjugates) and anti-mouse Alexa Fluor® 488 (1:20,000, for actin) secondary antibodies.

[6] = test system: NEDD8 downstream protein labeling in A549 cells; conditions: A549, increasing concentrations
Protocol: as §3, §4

For `Nc1ncnc2c1ncn2[C@@H]1O[C@H](C(=O)NCCCCCC(=O)N2CCNCCNCCNCC2)[C@@H](O)[C@H]1O.O=S(=O)([O-])C(F)(F)F.O=S(=O)([O-])C(F)(F)F.[Zn+2]` [Compound 1.5.Zn, (2S,3S,4R,5R)—N-(6-(1,4,7,10-tetraazacyclododecan-1-yl)-6-oxohexyl)-5-(6-amino-9H-purin-9-yl)-3,4-dihydroxytetrahydrofuran-2-carboxamide zinc trifluoromethanesulfonate], the UFMylation levels [1] was “Decreased UFMylation levels”, the UFMylation levels [2] was “Decreased UFMylation levels” and the VMAX (UBA5) was 0.988 ± 0.137 pmol/min. For the same molecule, the kCAT (UBA5) was 0.00188 ± 0.000267 s⁻¹, the cell death [3] was “no cell death” and the IC50 (GST-UBA5; Table 1, transthiolation enzymatic assay, read-out: IC50) was 4 µM. For the same molecule, the IC50 (GST-UBA5; Table 5, n = 3, read-out: IC50) was 4 µM, the “relative inhibitor activity against UBA5” value (GST-UBA5; comparison between series) was “most potent zinc-coordinated complex” and the IC50 (GST-UBA5; read-out: IC50, inhibition of UFC1-UFM1 conjugate formation) was 4.1 µM and 4 µM. The IC50 ([4]; n=3-6) was 103 µM and 66.8 µM, the “selectivity for UBA5 over NAE” value ([4]; ratio of IC50) was > 20 fold and ~20 fold and the “intracellular NAE inhibition (NEDD8 labeling)” value [5] was “no intracellular NAE inhibition”. For the same molecule, the “intracellular NAE inhibition (NEDD8 labeling)” value [6] was “no intracellular NAE inhibition”.
